The nature of this data set: Human HepG2 cell viability assay in 384 well format. The data set is classed as toxicity, cell-based. The conditions noted are these: HepG2 cells, read-out: Inhibition. Details: dose 125 nL, time 70.5 hour; concentration not given beside the values.
In the case of `CN(C)CC1(O)CCCN(C(=O)Cn2nc3ccccc3n2)CC1` (stereo unspecified), the cytotoxicity at 70.5 h was found to be 11.1%. Turning to `c1ccc(C(Cn2cnnc2)N2CCOCC2)nc1` (stereo unspecified), the cytotoxicity at 70.5 h came to 0.586%. Consider `CNC(=O)c1cc(-n2ccnc2-c2cnc(N(C)C)nc2)ccc1OC`, for which the cytotoxicity at 70.5 h turned out to be 3.46%. Then `Cc1cc2c(c(-c3cncc(C(=O)N4CCCC4)n3)c1)OC(CN)C2` (stereo unspecified), with -6.51%. Then `CSCC[C@H](NC(C)=O)c1nc(Cc2ccccc2)n[nH]1`, with 6.58%; and `CSc1nc(O)c(Cc2ccccc2)c(=O)n1-c1ccccc1`, with -6.85%; and `Cc1cc(CN(C)Cc2csc(-c3cccs3)n2)n[nH]1`, with -1.87%. With `CCn1ncnc1CN(C/C=C/c1ccccc1)CCOC` the figure was -1.42%; with `COc1cccc(-c2cc(-c3nc(CN4CCN(C)CC4)no3)[nH]n2)c1`, 6.39%. As for `N#Cc1c(N)nc2c(c1-c1c[nH]nc1C1CCCCC1)COCC2`, the cytotoxicity at 70.5 h was 0.079%.

For `COc1ccc(C(C)n2ccnc2-c2cc3n(n2)CCCNC3)cc1F` (stereo unspecified), the cytotoxicity at 70.5 h was -0.853%. `COc1ccc(C(C(=O)O)N(C)CCN2CCOCC2)c(C)c1` (stereo unspecified): the cytotoxicity at 70.5 h is -11.3%. With `Cc1nc2c(N(CCC(N)=O)CCc3ccccc3)ncnc2o1`, the cytotoxicity at 70.5 h amounted to 22%. Then `CCc1cc(NCC(N)=O)nc(N2CCCCC2)n1`, with -8.82%; and `Cc1ccccc1CN1CCNC(=O)C1CC(=O)NCC1CCCCC1` (stereo unspecified), with -7.5%. With `CC(=O)CN1CCC2(CC1)c1ccccc1[C@@H](N1CCSCC1)[C@@H]2O` the figure was -5.27%; with `COc1cccc(NC(=O)NCC2CCCN(C3CCOCC3)C2)c1` (stereo unspecified), -8.3%; with `CCCS(=O)(=O)N[C@H]1CN(c2ncccc2C(N)=O)C[C@@H]1C(C)C`, 0.22%. With `CCN(C)S(=O)(=O)NCC1CCCN(Cc2ccccc2F)C1` (stereo unspecified) the figure was -4.79%. Take `Cc1n[nH]c(C)c1CCCN(C)Cc1c[nH]nc1-c1ccc(F)cc1`: the cytotoxicity at 70.5 h was -4.19%. As for `CCNC(=O)[C@@H]1C[C@H](NC(=O)Cn2ccnc2)CN1Cc1ccsc1`, the cytotoxicity at 70.5 h was 14.3%. Then `CC(=O)N[C@H]1CCN(C(=O)c2cc(Cn3cnc4ccccc43)[nH]n2)C1`, with -3.6%. With `CC(C)n1cnnc1CN(C)C(=O)Cn1ccc2ccccc2c1=O` the figure was -8.95%. Then `O=C1NCC2=C1C(c1ccc(O)cc1)Nc1ccccc1N2` (stereo unspecified), with -6.66%; and `Cc1noc(CN(C)CC2(O)CCCN(CCC3CCCCC3)C2=O)n1` (stereo unspecified), with -0.981%.

`COCCNc1cc(-c2ccccc2CCN)c2cc[nH]c2n1`: the cytotoxicity at 70.5 h is -2.8%. With `CS(=O)(=O)c1ccc(CN2CCCC3(C2)C(=O)Nc2ccccc23)cc1` (stereo unspecified), the cytotoxicity at 70.5 h stood at 24.9%.

`COc1cc(N2CCC(c3nccn3Cc3ccccc3)CC2)ncn1`: the cytotoxicity at 70.5 h was -1.15%. Then `CC(C)C1CN(C(=O)c2cn3cc(Cl)cnc3n2)CCCN1CC1CC1` (stereo unspecified), with 20.2%; and `CN1CCc2[nH]nc(C(=O)N3CCCC4(CC3)CNC(=O)O4)c2C1` (stereo unspecified), with -3.37%; and `CC(=O)N[C@@H](CC(C)C)C(=O)N1CCC(n2cc(CC(C)C)nn2)CC1`, with 6.61%.

Take `CN(C)C(C(=O)N1CC(Oc2ccccc2F)C1)c1ccccc1F` (stereo unspecified): the cytotoxicity at 70.5 h amounted to 12.3%.

On to `O=C(c1cncc(NCC2COc3ccccc3C2)n1)N1CCCCC1` (stereo unspecified), for which the cytotoxicity at 70.5 h came to 0.974%.

With `O=C(c1cccc2ccnn12)N1CCC[C@H]1CN1CCCC1`, the cytotoxicity at 70.5 h is 6.92%. With `Cc1nc2c(c(NCc3nc4ccccc4s3)n1)CCNCC2` the figure was -4.98%; with `Cc1cc(C(=O)N(C)C2CCN(C)C2)c2ccc(F)cc2n1` (stereo unspecified), 23.7%; with `Cn1ncc2c(N3CCCC4(CCNC4)C3)nc(C(C)(C)C)nc21` (stereo unspecified), -11.5%. Then `COc1cccc(CC2(C(=O)O)CCN(c3ccc(Cl)cn3)CC2)c1`, with -3.25%; and `Cc1ccc(OCC2CCCN(C(=O)CCn3ccccc3=O)C2)cc1` (stereo unspecified), with 0.753%; and `Cc1sc2nc(CCN)nc(N3CCN(S(C)(=O)=O)CC3)c2c1C`, with -8.4%. For `CC(=O)Nn1c(C)cc(CN2CCC(c3ccncc3)CC2)c1C`, the cytotoxicity at 70.5 h was -2.26%. Consider `CCC(Nc1cccc(OC)c1)C(=O)N(CCOC)Cc1cnn(C)c1` (stereo unspecified), for which the cytotoxicity at 70.5 h is -1.31%. Then `Cc1ncsc1CCN(C)Cc1cc2n(n1)CCN(Cc1ccco1)C2`, with -16.9%. With `CS(=O)(=O)N1C[C@@H]2CC[C@H](C1)N(CCC(=O)NCc1ccco1)C2` the figure was 4.49%; with `CC(C)CN1CC(c2nc(-c3ccc(F)cc3)c[nH]2)CC1=O` (stereo unspecified), -7.74%; with `CC(C)(C)c1csc(CNC(=O)C2NCCc3[nH]cnc32)n1` (stereo unspecified), -9.53%. With `Cc1cccc(CN(C(=O)CCn2cncn2)C(C)C)c1` the figure was -9.18%; with `CN(C)c1ccc(CC(=O)N2C[C@H](C3CC3)[C@@H](N)C2)cc1`, 0.366%; with `CN(CC(=O)N1CCOC(CCc2ccccc2)C1)Cc1ccccn1` (stereo unspecified), -7.68%. In the case of `Cc1cc(NCCCc2c(C)noc2C)nc(N)n1`, the cytotoxicity at 70.5 h was -10.4%.

Turning to `CCc1c(C)sc2ncnc(N3CCN(C4CCOCC4)CC3)c12`, the cytotoxicity at 70.5 h is -11.1%. With `CCN(C(=O)c1c(Cl)cnn1CC)C(C)C(N)=O` (stereo unspecified) the figure was -11.3%; with `COCCOCC(=O)N1C[C@H]2CC[C@@H]1CN(C1Cc3ccccc3C1)C2`, -9.96%; with `COc1cc(Cl)cc(C(=O)N2CCC3(CCCNC3)C2)c1` (stereo unspecified), -5.79%. As to `C[C@@H]1CN(C(=O)CCCN2CCOCC2)C[C@@]1(O)C1CC1`, the cytotoxicity at 70.5 h was -5.23%. As to `COCCN(Cc1cccc(OCCO)c1)Cc1ccccc1F`, the cytotoxicity at 70.5 h was -2.88%. As to `COc1cc(C2CC(=O)Nc3c2nc2n3CCCC2)cc(OC)c1O` (stereo unspecified), the cytotoxicity at 70.5 h is -5.3%. `Cc1c(C(=O)N2CCC3(CCC(=O)N(CCN(C)C)C3)CC2)ccn1C`: the cytotoxicity at 70.5 h amounted to 0.579%. Turning to `CCc1nccn1CCC(=O)N1CCCC1c1ccc(F)cc1` (stereo unspecified), the cytotoxicity at 70.5 h was -1.42%. Then `CCOC(=O)c1n[nH]cc1CN1CCOC(Cc2ccc(F)cc2)C1` (stereo unspecified), with -3.8%; and `Nc1nc2c(c(NCc3nc(-c4ccncc4)n[nH]3)n1)CCCC2`, with -0.22%; and `Cc1cc(C)n(CC(C)NCCn2nc(C)c(Cl)c2C)n1` (stereo unspecified), with 3.47%. Then `N#Cc1cccc(Oc2ccc(CN3CCCC3)cc2Cl)n1`, with 18.1%; and `Cn1cc(-c2c(C#N)c(N)nc3c2CCc2[nH]ccc2-3)cc1C#N`, with 16.7%. Then `O=C(c1cccc(CO)n1)N1CCCC1c1nc2cc(F)ccc2[nH]1` (stereo unspecified), with 16.2%; and `CC(C)=CCC1(CO)CCCN(Cc2cnc(N3CCOCC3)nc2)C1` (stereo unspecified), with -6.39%; and `CCn1ncc(C(=O)N2CCN(CC3CCCO3)CC2)c1C` (stereo unspecified), with -0.538%. With `CN(Cc1nccn1C)c1nccc(N2CCCC(O)C2)n1` (stereo unspecified), the cytotoxicity at 70.5 h worked out at 2.11%. Regarding `Cc1cncc(C(=O)N2CCCC(O)(CN(C)C)CC2)c1` (stereo unspecified), the cytotoxicity at 70.5 h is 7.68%. In the case of `c1ccc(-c2noc(CCNC3CCOC4(CCOCC4)C3)n2)nc1` (stereo unspecified), the cytotoxicity at 70.5 h is -8.03%.

Regarding `O=C1CCC2(CCN(Cc3cscn3)CC2)CN1[C@H]1CC[C@H](O)CC1`, the cytotoxicity at 70.5 h was -13.1%. Then `Cc1nc(CN2CCC(Oc3ccc(F)cc3C)(C(=O)O)CC2)co1`, with -2.54%; and `C=C(C)CNCC1(O)CCCN(Cc2ccc(F)c(F)c2)C1=O` (stereo unspecified), with -1.61%. On to `C=Cc1cccc(CN2C[C@H]3CC[C@@H]2CN(Cc2c(C)noc2C)C3)c1`, for which the cytotoxicity at 70.5 h was -0.99%. With `CC(C)[C@H]1COC(=O)N1Cc1nnc(-c2ccccc2)o1`, the cytotoxicity at 70.5 h was -1.91%. Then `CCOC(=O)N1CCC(NC(C)Cc2cc(C)n[nH]2)CC1` (stereo unspecified), with -0.223%; and `CN(C(=O)CCc1ccncc1)C1CCCN(CCc2ccccc2)C1` (stereo unspecified), with -7.17%. Consider `CCN(C)CC(=O)N1CCCC(c2nnc(CN3CCOCC3)n2C)C1` (stereo unspecified), for which the cytotoxicity at 70.5 h was -4.67%. With `COc1ccc2nc(CNC(=O)c3cc(C(C)C)on3)[nH]c2c1` the figure was -14.8%; with `Cc1nc(CC(=O)N(C)C2CCCN(CCc3ccccc3)C2)cs1` (stereo unspecified), -4.36%; with `CCn1nc(CNC(=O)C2CCCN(C(=O)COC)C2)c2ccccc21` (stereo unspecified), -5.41%. For the molecule `CN1[C@H]2CC[C@@H]1CN(c1cc(Sc3cccs3)nc(N)n1)CC2`, the cytotoxicity at 70.5 h came out at 22.8%. With `Cc1noc(-c2ccnc(Oc3ccc(CN4CCCC4)cc3F)c2)n1` the figure was 13.3%; with `Cc1ccc2c(c1)c(CNC(=O)C1CC(=O)N(C3CC3)C1)nn2C` (stereo unspecified), -4.12%; with `O=C(c1cccc(-c2ccc(F)cc2)c1)N1CCC2(CC1)[C@H](O)C[C@@H]2O`, -9.07%.

For the molecule `Cc1nc(CNc2nc(-c3ccco3)nc3c2CCNCC3)n[nH]1`, the cytotoxicity at 70.5 h was -5.4%.

Take `COc1cc(-c2cc(NC3CCCC3)nc3[nH]ccc23)nc(N)n1`: the cytotoxicity at 70.5 h is -11.3%. Take `COCC(=O)N1CCC(C(=O)N(C)C(C)c2ccon2)CC1` (stereo unspecified): the cytotoxicity at 70.5 h was -2.4%.

In the case of `Cc1ccc(Oc2ncccc2CNC(=O)NC2CCCCC2)cn1`, the cytotoxicity at 70.5 h is -6.45%. With `Cc1nc[nH]c1CN1CCOC(c2ccc(Cl)c(Cl)c2)C1` (stereo unspecified) the figure was -2.06%; with `c1ccc(C(Cn2cccn2)Nc2cnccn2)cc1` (stereo unspecified), -12.5%.

With `CCC(CO)N(Cc1ccccn1)C(=O)c1cccc(C#N)c1` (stereo unspecified), the cytotoxicity at 70.5 h was -1.64%.

Consider `CC1CCN(CC2(O)CCCN(Cc3cccc(F)c3F)C2=O)CC1` (stereo unspecified), for which the cytotoxicity at 70.5 h is 1.43%. Then `CN(CCc1ccccn1)C(=O)c1cn2c(n1)CNCC2`, with -8.81%.

Take `CN(C)CC1(O)CCCN(C(=O)c2cnc(-c3ccccn3)nc2)C1` (stereo unspecified): the cytotoxicity at 70.5 h was -3.36%.

`CC(C)C(=O)N1CCN(C(=O)c2cc(C(C)C)no2)[C@H]2CS(=O)(=O)C[C@H]21`: the cytotoxicity at 70.5 h was -0.523%.
